Strand notation (5' to 3'): a small letter for the sugar, then the base; units joined by * are phosphorothioate-linked, units joined directly phosphodiester-linked; [ ] holds rarer units or linkages, { } end groups; capitals alone tell only the bases. k = constrained ethyl (cEt); [5mC] = 5-methylcytosine; d = 2'-deoxy (DNA)
Test system: Yap1 mRNA
Assay: Antisense inhibition of human Yap1 in A-431 cells by cEt gapmers, single dose (Example 2, RTS4814)
Type: cell-based
Method: Modified oligonucleotides were designed to target a Yap1 nucleic acid and were tested for their effect on Yap1 mRNA level in vitro. The modified oligonucleotides were tested in a series of experiments that had similar culture conditions. Cultured A-431 cells at a density of 5,000 cells per well were treated using free uptake with 2,000 nM of modified oligonucleotide. After a treatment period of approximately 48 hours, RNA was isolated from the cells and Yap1 mRNA levels were measured by quantitative real-time RTPCR. Human primer probe set RTS4814 was used to measure mRNA levels. Yap1 mRNA levels were normalized to total RNA content, as measured by RIBOGREEN®. Results are presented in the tables below as percent control of the amount of Yap1 mRNA relative to untreated control cells (% UTC). The modified oligonucleotides with percent control values marked with an asterisk (*) target the amplicon region of the primer probe set. Additional assays may be used to measure the potency and efficacy of the modified oligonucleotides targeting the amplicon region.
The newly designed modified oligonucleotides in the Tables below were designed as 3-10-3 cEt gapmers. The gapmers are 16 nucleosides in length, wherein the central gap segment comprises of ten 2′-deoxynucleosides and is flanked by wing segments on the 5′ direction and the 3′ direction comprising three nucleosides each. Each nucleoside in the 5′ wing segment and each nucleoside in the 3′ wing segment has a cEt sugar modification. The internucleoside linkages throughout each gapmer are phosphorothioate (P═S) linkages. All cytosine residues throughout each gapmer are 5-methylcytosines.
“Start site” indicates the 5′-most nucleoside to which the gapmer is targeted in the human gene sequence. “Stop site” indicates the 3′-most nucleoside to which the gapmer is targeted human gene sequence. […] Activity ofthe modified oligonucleotide may be defined in a different experiment.

[1] = Yap1 mRNA as percent of untreated control, A-431 cells, 3-10-3 cEt gapmers targeting SEQ ID NO.: 1, and 2, Table 30
[2] = Table 19, A-431 cells, 5,000 cells per well, free uptake, 2,000 nM modified oligonucleotide, approx. 48 hours, RTS4814, normalized to RIBOGREEN, Yap1 mRNA as percent of untreated control
[3] = Yap1 mRNA as percent of untreated control, A-431 cells, 3-10-3 cEt gapmers targeting SEQ ID NO.: 1, and 2, Table 31
[4] = Table 33, Yap1 mRNA, percent of untreated control, 3-10-3 cEt gapmers targeting SEQ ID NO.: 1, and 2
[5] = Table 21, Yap1 mRNA, percent of untreated control, 3-10-3 cEt gapmers targeting SEQ ID NO.: 1 and 2
[6] = Table 5, A-431 cells, 5,000 cells per well, free uptake, 2,000 nM modified oligonucleotide, approx. 48 hours, RTS4814, normalized to RIBOGREEN, Yap1 mRNA relative to untreated control cells
[7] = Table 20, Yap1 mRNA, percent of untreated control, 3-10-3 cEt gapmers targeting SEQ ID NO.: 1 and 2
[8] = Table 22, Yap1 mRNA as percent of untreated control, 3-10-3 cEt gapmers, single dose
[9] = Table 32, Yap1 mRNA, percent of untreated control, 3-10-3 cEt gapmers targeting SEQ ID NO.: 1, and 2
[10] = Table 6, A-431 cells, 5,000 cells per well, free uptake, 2,000 nM modified oligonucleotide, approx. 48 hours, RTS4814, normalized to RIBOGREEN, Yap1 mRNA relative to untreated control cells
[11] = Table 24, Yap1 mRNA as percent of untreated control, 3-10-3 cEt gapmers targeting SEQ ID NO.: 1, and 2
[12] = Table 18, A-431 cells, 5,000 cells per well, free uptake, 2,000 nM modified oligonucleotide, approx. 48 hours, RTS4814, normalized to RIBOGREEN, Yap1 mRNA as percent of untreated control

## 1074512 (kG*kG*kA*dT*dA*d[5mC]*dA*dT*dT*d[5mC]*d[5mC]*dA*d[5mC]*kT*kA*k[5mC]; antisense) [compound 1074512]
[1]
  YAP1 (% UTC): 64 % UTC

## 1075493 (antisense kA*kG*kA*d[5mC]*dA*dA*dG*dG*dG*dA*dT*dG*d[5mC]*kT*kA*kA) [Compound 1075493]
[2]
  YAP1 (% UTC): 67 % UTC

## 1074705 (antisense kG*k[5mC]*kA*d[5mC]*dG*dG*dT*dG*dT*dA*dA*dG*dA*k[5mC]*kA*kA) [compound 1074705]
[3]
  YAP1 (% UTC): 20 % UTC

## 1074323 (antisense k[5mC]*kA*kG*dG*dG*d[5mC]*dT*dA*dA*d[5mC]*dT*d[5mC]*d[5mC]*kT*kG*kA) [compound 1074323]
[4]
  YAP1 (% UTC): 116 % UTC

## 1075943 (kG*kT*kA*dT*dA*dT*d[5mC]*dA*dA*dA*d[5mC]*d[5mC]*dT*kT*kT*kT; antisense) [Compound 1075943]
[5]
  YAP1 (% UTC): 15 % UTC

## 716511 (antisense kG*kA*kT*d[5mC]*dT*dT*d[5mC]*dT*dG*d[5mC]*dA*d[5mC]*dA*kT*kT*kA) [Compound 716511]
A-431 cells, 5,000 cells per well, free uptake, 2,000 nM modified oligonucleotide, approx. 48 hours, RTS4814, normalized to RIBOGREEN, Table 4, asterisk (*) = targets amplicon region of primer probe set
  YAP1 (% UTC): 51 % UTC

## 716407 (k[5mC]*kT*kT*dA*dG*dT*d[5mC]*d[5mC]*dA*d[5mC]*dT*dG*dT*k[5mC]*kT*kG; antisense) [Compound 716407]
[6]
  YAP1 (% UTC): 35 % UTC

## 1074640 (antisense kG*k[5mC]*k[5mC]*dA*dA*dA*dA*dT*dA*d[5mC]*dT*dT*dA*kG*kA*kT) [compound 1074640]
[1]
  YAP1 (% UTC): 26 % UTC

## 1074311 (antisense kT*kT*k[5mC]*d[5mC]*dG*d[5mC]*dA*dT*dT*dG*d[5mC]*d[5mC]*dT*kG*kT*kG) [Compound 1074311]
[5]
  YAP1 (% UTC): 24 % UTC

## 1075814 (kT*kA*kT*dA*dA*dA*dG*d[5mC]*dA*dG*dG*dG*d[5mC]*kA*kT*kT; antisense) [Compound 1075814]
[7]
  YAP1 (% UTC): 47 % UTC

## 1075848 (kG*kA*kT*dT*dA*d[5mC]*dA*dA*dT*dG*dG*dG*d[5mC]*kA*kG*kT; antisense) [Compound 1075848]
[8]
  YAP1 (% UTC): 9 % UTC

## 1076200 (kG*kA*kT*dT*dA*d[5mC]*dA*d[5mC]*dT*dA*dT*d[5mC]*dA*kA*kA*kA; antisense) [Compound 1076200]
[8]
  YAP1 (% UTC): 67 % UTC

## 1075185 (kG*k[5mC]*k[5mC]*d[5mC]*dA*dA*dG*dA*dA*d[5mC]*dA*d[5mC]*dT*kG*kG*kT; antisense) [compound 1075185]
[3]
  YAP1 (% UTC): 78 % UTC

## 1074343 (antisense kA*kG*kA*d[5mC]*dA*dT*d[5mC]*d[5mC]*d[5mC]*dG*dG*dG*dA*kG*kA*kA) [Compound 1074343]
[5]
  YAP1 (% UTC): 18 % UTC

## 1075826 (kT*kA*kG*dG*dG*dA*dA*dA*dA*d[5mC]*d[5mC]*dA*dT*kA*kG*k[5mC]; antisense) [compound 1075826]
[9]
  YAP1 (% UTC): 23 % UTC

## 716564 (k[5mC]*kT*kT*dT*dT*dG*dG*dG*d[5mC]*dA*dA*dA*dG*kT*kT*k[5mC]; antisense) [Compound 716564]
[10]
  YAP1 (% UTC): 103 % UTC

## 1075251 (kT*kA*kA*dT*dT*dA*d[5mC]*dG*dA*dT*dT*dA*dG*kA*kT*k[5mC]; antisense) [compound 1075251]
[4]
  YAP1 (% UTC): 79 % UTC

## 1076400 (antisense kG*kT*kT*dA*dA*dA*dA*dG*d[5mC]*d[5mC]*dG*dT*dG*kA*kA*kA) [compound 1076400]
[1]
  YAP1 (% UTC): 10 % UTC

## 716359 (k[5mC]*k[5mC]*k[5mC]*d[5mC]*dT*dG*dA*d[5mC]*d[5mC]*d[5mC]*dA*dG*dG*k[5mC]*kG*kA; antisense) [Compound 716359]
[6]
  YAP1 (% UTC): 101 % UTC

## 1076423 (k[5mC]*k[5mC]*kT*dG*dA*dA*d[5mC]*d[5mC]*dT*dT*d[5mC]*dT*dG*kG*kA*kT; antisense) [Compound 1076423]
[5]
  YAP1 (% UTC): 93 % UTC

## 1075622 (kT*k[5mC]*kT*dT*dA*dT*dA*d[5mC]*d[5mC]*dT*dA*dT*d[5mC]*kT*kT*k[5mC]; antisense) [Compound 1075622]
[7]
  YAP1 (% UTC): 56 % UTC

## 1075114 (antisense kG*kT*kA*dT*dA*dA*dA*dT*dA*d[5mC]*d[5mC]*dA*dG*kG*kT*kA) [Compound 1075114]
[11]
  YAP1 (% UTC): 26 % UTC

## 1074373 (antisense kG*k[5mC]*kT*dT*dT*dG*dG*dT*dT*dG*dA*dT*dA*kG*kT*kA) [Compound 1074373]
[2]
  YAP1 (% UTC): 26 % UTC

## 1075819 (kG*kT*kA*dT*dA*dT*d[5mC]*d[5mC]*dG*dT*dT*d[5mC]*dT*k[5mC]*kA*kT; antisense) [Compound 1075819]
Table 25, Yap1 mRNA as percent of untreated control, 3-10-3 cEt gapmers targeting SEQ ID NO.: 1, and 2
  YAP1 (% UTC): 2 % UTC

## 1075818 (k[5mC]*kA*kT*dA*dA*d[5mC]*dT*dT*dA*dG*dA*dA*d[5mC]*k[5mC]*kA*kT; antisense) [Compound 1075818]
[11]
  YAP1 (% UTC): 35 % UTC

## 1075716 (kG*k[5mC]*k[5mC]*dG*dA*dA*dA*dT*dA*d[5mC]*dT*d[5mC]*dT*k[5mC]*kA*kT; antisense) [Compound 1075716]
[12]
  YAP1 (% UTC): 19 % UTC

## 1076202 (kT*k[5mC]*kT*dA*dA*dA*dA*dA*dG*dA*d[5mC]*dA*dG*kG*kG*k[5mC]; antisense) [Compound 1076202]
[11]
  YAP1 (% UTC): 32 % UTC

## 716486 (kA*kT*k[5mC]*dA*dT*dG*dA*dT*dT*dA*dT*d[5mC]*dT*k[5mC]*kT*kA; antisense) [Compound 716486]
[10]
  YAP1 (% UTC): 68 % UTC

## 1074630 (antisense kA*kG*kA*dG*dA*dT*dT*dT*dT*dA*dT*dG*d[5mC]*k[5mC]*kT*kG) [Compound 1074630]
[7]
  YAP1 (% UTC): 5 % UTC

## 1074372 (antisense k[5mC]*kT*kT*dT*dG*dG*dT*dT*dG*dA*dT*dA*dG*kT*kA*kT) [Compound 1074372]
[12]
  YAP1 (% UTC): 10 % UTC

## 1074634 (antisense kG*k[5mC]*kT*dG*dA*dG*dG*d[5mC]*dT*dT*dT*dT*d[5mC]*kA*kT*kA) [Compound 1074634]
[11]
  YAP1 (% UTC): 55 % UTC

## 1074185 (antisense kG*kG*k[5mC]*d[5mC]*dG*dG*dT*dT*dG*dA*dG*dG*d[5mC]*kG*kG*k[5mC]) [Compound 1074185]
Table 23, Yap1 mRNA as percent of untreated control, 3-10-3 cEt gapmers, single dose
  YAP1 (% UTC): 91 % UTC

## 1074791 (k[5mC]*kT*k[5mC]*d[5mC]*dA*dT*d[5mC]*dA*dA*d[5mC]*d[5mC]*dA*dT*kA*kA*kG; antisense) [Compound 1074791]
[5]
  YAP1 (% UTC): 20 % UTC

## 1075410 (antisense kG*kA*kT*dT*dA*dA*d[5mC]*dA*dG*d[5mC]*d[5mC]*d[5mC]*dT*kT*kT*kA) [compound 1075410]
[9]
  YAP1 (% UTC): 36 % UTC

## 716416 (kA*kA*kG*dG*dA*dT*dG*dT*d[5mC]*dA*dG*dA*dA*k[5mC]*kT*k[5mC]; antisense) [Compound 716416]
[6]
  YAP1 (% UTC): 45 % UTC

## 1075570 (kG*kA*kT*dA*d[5mC]*dT*dA*dA*dG*d[5mC]*dA*d[5mC]*dA*kG*kA*kG; antisense) [compound 1075570]
[9]
  YAP1 (% UTC): 16 % UTC

## 1074789 (kA*kT*k[5mC]*dA*dA*d[5mC]*d[5mC]*dA*dT*dA*dA*dG*dT*kA*kG*kA; antisense) [Compound 1074789]
[2]
  YAP1 (% UTC): 17 % UTC
